Reference: patent publication US9844572B2, “Promotion of neuronal integration in neural stem cell grafts” (Life & Brain GmbH, priority 2009, dated 2017)

Tests used:
[1] = test system: lt-hESNSC mixed with immature neurons on hippocampal rat slice cultures; test: Transplantation onto rat hippocampal slice cultures (migration of human neurons from mixed grafts); assay type: cell-based; details: 2 μg/ml BIBF1120, day 7
Description: Using a vibroslicer, 400 μm horizontal sections were generated from the hippocampus of 9-10 day-old Wistar rats. The slices included the dentate gyrus and the entorhinal and temporal cortex (Scheffler et al., 2003; Opitz et al., 2007). They were transferred onto a polyester membrane and cultivated at 35° C., 5% CO2 and saturated air humidity in an initial culture medium containing 25% normal horse serum, which was gradually replaced after 3-5 days by chemically defined, serum-free culture medium based on DMEM/F12, N2 supplement and B27 supplement. Medium was changed every other day and 5-7 days after explantation a cell suspension of 50 000 cells in a 1 μl volume was spotted onto the entorhinal cortex of the slice using an injection device.
For immunohistochemical analysis of slice cultures (FIG. 4), cultures were fixed in 4% paraformaldehyde for 4 hours and subsequently washed several times with PBS. Slices were permeabilized/blocked with 0.1% Triton X-100+10% FCS for 6 hours at 25° C. Incubation with primary antibody was for 16 hours at room temperature, followed by washing steps with PBS for 5 hours. Incubation with the secondary antibodies was for 2 hours at room temperature.
To further investigate whether endostatin can also interfere with the chemoattractive effect of neural stem/progenitor cells on immature neurons in a context closer to an in vivo situation, hippocampal rat slice culture experiments were performed. HES-NSC70+N30 were pre-incubated for 30 minutes in 30 μl Cytocon™-Buffer II with either 2 μl stock solution endostatin (n=9) or with 2 μl of the solvent of endostatin (citric-phosphate buffer) as control (n=9), and then deposited on the entorhinal cortex of hippocampal slice cultures. Cultures of pure human neurons were transplanted as positive control (n=9). The slices were further cultured for 18 days after deposition of the cells. 1 μl/ml endostatin stock solution was continuously applied every day to the slice media.
To further investigate whether BIBF1120 can also interfere with the chemoattractive effect of neural stem/progenitor cells on immature neurons, hippocampal rat slice culture experiments were performed. Lt-hESNSC mixed with purified DCX-EGFP positive neurons (30.0000 lt-hESNSC mixed with 100.000 purified neurons per μl) were pre-incubated for 30 min. in Cytocon™-Buffer II with or without 2 μg/ml BIBF1120, respectively, and then deposited on the entorhinal cortex (EC) of hippocampal slice cultures. The slices were further cultured for 7 days after deposition of the cells. 2 μg/ml BIBF1120 was continuously applied every day to the slice media.

[2] = test system: lt-hESNSC; test: BrdU cell proliferation assay; assay type: cell-based, human; details: BIBF1120 2 μg/ml for 20 h; BrdU 2.5 h
Description: (§1) FIG. 9 The effect of BIBF1120 on lt-hESNSC proliferation and differentiation. The proliferative effect was measured in a BrdU proliferation assay of lt-hESNSC, either with or without BIBF1120 (a). Bars represent the percentage of BrdU positive cells, cultured for 20 hours in NSC-medium or in NSC-medium with BIBF1120 (2 μg/ml) and treated for 2.5 h with BrdU. The neurogenic effect of BIBF1120 on lt-hESNSC was studied (b). Bars represent the percentage of βIII tubulin-positive neurons in lt-hESNSC cultured for 10 days in neuronal generation medium or in neuronal generation medium with BIBF1120 (2 μg/ml).
For BrdU staining (FIG. 6A) 0.5% Triton X-100 in PBS was used for permeabilizing the cells. After washing, cells were incubated with 2 M HCl for 10 minutes, washed in PBS, equilibrated using 0.1 M borate buffer, washed again in PBS, followed by an incubation with the primary antibody diluted in blocking solution at room temperature over night. Staining with the secondary antibody was performed as described.
5′-bromo-T-deoxyuridine (BrdU) is a thymidine analog that incorporates into dividing cells during DNA synthesis. To determine whether BIBF1120 has an influence on the proliferation rate of lt-hESNSC, cells were cultured under neural proliferation medium with or without BIBF1120 (2 μg/ml) for 20 h. BrdU was added to the culture medium for 2.5 h. […]

[3] = test system: human Neurons; test: Dunn chamber migration assay (chemotaxis of immature neurons); assay type: cell-based; details: BIBF1120 (2 μg), 6 h recording; for chemotactic response of human neurons towards FGF2 gradient in presence of inhibitor: FGF2 200 ng/ml in outer well; for chemotactic response of human neurons towards VEGF gradient in presence of inhibitor: VEGF 200 ng/ml in outer well
Description: FIG. 7A Dunn chamber migration assay. Schematic representation of a direct-viewing Dunn chemotaxis chamber showing the position of the inner well, the bridge, the outer well and the overlying coverslip (a) (Zicha et al., 1991 1998, Zhang et al., 2003). Adopted from Hawksley. Calculation of the forward migration index (FMI) during a 6 h recording period. FMI values can be either positive or negative, depending on the direction in which the cell is migrating (b).
FIG. 7B Directionality analysis of cell movement using scatter plots of cell displacement (c-i). The diagrams orientate such that the position of the outer well of the chamber are vertical (y direction). Each point represents the final position of a cell at the end of the recording period of 6-h; the starting point of migration is fixed at the intersection of the two axes. As control migration of human neurons was monitored in medium only (c). For assessing chemokinesis, equal amounts of FGF2 (d) or VEGF (e) were added to both the outer and the inner wells of the chamber. Chemotaxis was tested by placing FGF2 (f) or VEGF (g) in the outer well only. Migration of human neurons treated with BFBF1120 was monitored towards a FGF2 (h) and VEGF (i) gradient.
Chemotaxis of immature neurons was directly viewed and recorded in stable concentration gradients of FGF2 (200 ng/ml) or VEGF (200 ng/ml), respectively, with or without the addition of BIBF1120 ([…]) using a Dunn chemotaxis chamber (Allen et al., 1998 1998, Zhang et al., 2003). This device is made from a Helber bacteria counting chamber by grinding a circular well in the central platform to leave a 1 mm-wide annular bridge between the inner and the outer well. Chemoattractants added to the outer well of the chamber will diffuse across the bridge to the inner well and form a linear steady gradient within ˜30 min after loading the chamber (Zicha et al., 1991; Webb et al., 1996). To study chemotaxis, the outer well of the Dunn chamber can be filled with medium containing a chemoattractant, whereas the concentric inner well is filled with medium only. Coverslips carrying the cultured cells are inverted and placed onto the chamber. Cell locomotion is recorded through the annular bridge between the concentric inner and outer well. For assessing chemokinesis, the outer and inner wells are filled with equal concentrations of the chemoattractant. A period of 6 h was chosen to assess cell migration.
To determine the efficiency of forward migration during the 6 h recording period, the FMI was calculated as the ratio of forward progress to the total path length (Foxman et al., 1999; Zhang et al.).

[4] = test system: lt-hESNSC; test: Neurogenesis assay (differentiation in neuronal generation medium); assay type: cell-based, human; details: 10 days in neuronal generation medium with BIBF1120 (2 μg/ml)
Description: as §1
Differentiation was studied by a neurogenesis assay. In this assay lt-hESNSC were cultured for 10 days in neuronal generation medium or in neuronal generation medium with BIBF1120 (2 μg/ml), fixed and stained for […].

[5] = test system: mitogen-activated protein kinase (MAPK) and Akt signalling pathways; details: after 1-hour treatment; cell culture; cited from earlier work

COC(=O)c1ccc2c(c1)NC(=O)/C2=C(\Nc1ccc(N(C)C(=O)CN2CCN(C)CC2)cc1)c1ccccc1 [BIBF1120, 3-Z-[1-(4-(N-((4-methyl-piperazin-1-yl)-methylcarbonyl)-N-methyl-amino)-anilino)-1-phenyl-methylene]-6-methoxycarbonyl-2-indolinone]
migration along the z-axis [1]: easily migrated throughout the entire slice tissue
total number of human neurons within 10 μm thick optical plane, bottom of the slice [1]: 14±7.8
total number of human neurons within 10 μm thick optical plane, middle of the slice [1]: 14.6±6.1
number of neurons migrated beyond a 250 μm perimeter around the deposition site, increase vs control ([1]; xy-axis): two-fold increase
migration horizontally over the slice compared to control population ([1]; lt-hESNSC mixed with purified neurons): enhanced migration and integration capacity
proliferation rate (BrdU positive cells) vs untreated control [2]: no significant difference
chemotactic response of human neurons towards FGF2 gradient in presence of inhibitor [3]: lost their chemotactic response
chemotactic response of human neurons towards FGF2 gradient in presence of inhibitor ([3]; listed as BFBF1120): loose this chemotactic response
chemotactic response of human neurons towards VEGF gradient in presence of inhibitor [3]: lost their chemotactic response
chemotactic response of human neurons towards VEGF gradient in presence of inhibitor ([3]; listed as BFBF1120): loose this chemotactic response
differentiation (βIII tubulin-positive neurons) [4]: not significantly influenced
duration of sustained pathway inhibition [5]: up to 32 hours
